Experiment: Metabolic stability in human liver microsomes
Type: in vitro ADME
Conditions: for CLint / t1/2: NADPH; for CLint / t1/2 / half-life at 0.25 μM / microsomal CLint at 0.25 μM: 37° C.; for differences in half-life and intrinsic clearance compared to rac-MBDB HCl salt (reference compound) / differences in half-life and intrinsic clearance compared to S-MBDB HCl salt (reference compound) / differences in half-life and intrinsic clearance compared to R-MBDB HCl salt (reference compound): based on Table Ex7; for half-life at 0.25 μM / microsomal CLint at 0.25 μM: pH 7.4, NADPH
Protocol: Microsomal Assay: Human liver microsomes (20 mg/mL) were obtained. β-nicotinamide adenine dinucleotide phosphate, reduced form (NADPH), magnesium chloride (MgCl2), and dimethyl sulfoxide (DMSO) were purchased from Sigma-Aldrich. Determination of Metabolic Stability: 7.5 mM stock solutions of test compounds of the above structural formula (e.g., of an embodiment or aspect of embodiment thereof described herein), or pharmaceutically acceptable salt thereof, are prepared in DMSO. […] The diluted microsomes were added to wells of a 96-well deep-well polypropylene plate in triplicate. […] Reactions were initiated by addition of pre-warmed NADPH solution. The final reaction volume is 0.5 mL and contains 4.0 mg/mL human liver microsomes, 0.25 μM test compound, and 2 mM NADPH in 0.1 M potassium phosphate buffer, pH 7.4, and 3 mM MgCl2. The reaction mixtures were incubated at 37° C., and 50 pL aliquots were removed at 0, 5, 10, 20, and 30 minutes and added to shallow-well 96-well plates which contain 50 pL of ice-cold ACN (acetonitrile) with internal standard to stop the reactions. The plates were stored at 4° C. for 20 minutes after which 100 pL of water was added to the wells of the plate before centrifugation to pellet precipitated proteins. Supernatants were transferred to another 96-well plate and analyzed for amounts of parent remaining by LC-MS/MS using an Applied Bio-systems API 4000 mass spectrometer. The same procedure was followed for the non-enriched counterpart of the compound and the positive control, 7-ethoxycoumarin (1 μM). Testing was done in triplicate.
Data analysis: The in vitro T1/2s for test compounds were calculated from the slopes of the linear regression of % parent remaining (In) vs incubation time relationship.
k=−[slope of linear regression of % parent remaining (In) vs incubation time] The apparent intrinsic clearance was calculated using the following equation: […]

CC[C@H](Cc1ccc2c(c1)OCO2)NC.Cl [R-MBDB HCl salt]
CLint: 11.7 μL/min/mg protein | t1/2: 1.98 h

Cl.[2H]C([2H])([2H])NC(CC)Cc1ccc2c(c1)OC([2H])([2H])O2 (racemic) [Compound 4, 1-(2,2-Dideuterio-1,3-benzodioxol-5-yl)-N-(trideuteriomethyl)butan-2-amine hydrochloride]
differences in half-life and intrinsic clearance compared to rac-MBDB HCl salt (reference compound): significant differences | half-life at 0.25 μM: 0.7 h | microsomal CLint at 0.25 μM: 33 µL/min/mg

Cl.[2H]C([2H])([2H])N[C@@H](CC)Cc1ccc2c(c1)OC([2H])([2H])O2 [Compound 6, (2S)-1-(2,2-Dideuterio-1,3-benzodioxol-5-yl)-N-(trideuteriomethyl)butan-2-amine hydrochloride]
differences in half-life and intrinsic clearance compared to S-MBDB HCl salt (reference compound): significant differences | half-life at 0.25 μM: 0.91 h | microsomal CLint at 0.25 μM: 25.4 µL/min/mg

Cl.[2H]C([2H])([2H])N[C@@H](CC)Cc1ccc2c(c1)OCO2 [Compound 3, (2S)-1-(1,3-Benzodioxol-5-yl)-N-(trideuteriomethyl)butan-2-amine hydrochloride]
differences in half-life and intrinsic clearance compared to S-MBDB HCl salt (reference compound): demonstrates differences | half-life at 0.25 μM: 2.88 h | microsomal CLint at 0.25 μM: 8.04 µL/min/mg

Cl.[2H]C1([2H])Oc2ccc(C[C@H](CC)NC)cc2O1 [Compound 9, (2S)-1-(2,2-Dideuterio-1,3-benzodioxol-5-yl)-N-methyl-butan-2-amine hydrochloride]
differences in half-life and intrinsic clearance compared to S-MBDB HCl salt (reference compound): significant differences | half-life at 0.25 μM: 0.867 h | microsomal CLint at 0.25 μM: 26.7 µL/min/mg

Cl.[2H]C([2H])([2H])NC(CC)Cc1ccc2c(c1)OCO2 (racemic) [Compound 2, 1-(1,3-Benzodioxol-5-yl)-N-(trideuteriomethyl)butan-2-amine hydrochloride]
differences in half-life and intrinsic clearance compared to rac-MBDB HCl salt (reference compound): demonstrates differences | half-life at 0.25 μM: 1.87 h | microsomal CLint at 0.25 μM: 12.4 µL/min/mg

Cl.[2H]C1([2H])Oc2ccc(C[C@@H](CC)NC)cc2O1 [Compound 7, (2R)-1-(2,2-Dideuterio-1,3-benzodioxol-5-yl)-N-methyl-butan-2-amine hydrochloride]
differences in half-life and intrinsic clearance compared to R-MBDB HCl salt (reference compound): significant differences | half-life at 0.25 μM: 0.628 h | microsomal CLint at 0.25 μM: 36.7 µL/min/mg

CC[C@@H](Cc1ccc2c(c1)OCO2)NC.Cl [S-MBDB HCl salt]
CLint: 8.06 μL/min/mg protein | t1/2: 2.87 h

Cl.[2H]C([2H])([2H])N[C@H](CC)Cc1ccc2c(c1)OC([2H])([2H])O2 [Compound 5, (2R)-1-(2,2-Dideuterio-1,3-benzodioxol-5-yl)-N-(trideuteriomethyl)butan-2-amine hydrochloride]
differences in half-life and intrinsic clearance compared to R-MBDB HCl salt (reference compound): significant differences | half-life at 0.25 μM: 0.405 h | microsomal CLint at 0.25 μM: 57.1 µL/min/mg

Cl.[2H]C([2H])([2H])N[C@H](CC)Cc1ccc2c(c1)OCO2 [Compound 1, (2R)-1-(1,3-Benzodioxol-5-yl)-N-(trideuteriomethyl)butan-2-amine hydrochloride]
differences in half-life and intrinsic clearance compared to R-MBDB HCl salt (reference compound): significant differences | half-life at 0.25 μM: 1.61 h | microsomal CLint at 0.25 μM: 14.3 µL/min/mg

COc1ccc2c(c1)[C@]13CCCC[C@@H]1[C@H](C2)N(C)CC3 [dextromethorphan]
CLint: 53.4 μL/min/mg protein

Cl.[2H]C1([2H])Oc2ccc(CC(CC)NC)cc2O1 (racemic) [Compound 8, 1-(2,2-Dideuterio-1,3-benzodioxol-5-yl)-N-methyl-butan-2-amine hydrochloride]
differences in half-life and intrinsic clearance compared to rac-MBDB HCl salt (reference compound): significant differences | half-life at 0.25 μM: 1.34 h | microsomal CLint at 0.25 μM: 17.2 µL/min/mg

CCC(Cc1ccc2c(c1)OCO2)NC.Cl (racemic) [rac-MBDB HCl salt]
CLint: 11.9 μL/min/mg protein | t1/2: 1.93 h

— US20250034105A1, “IS[…] N-METHYL-1,3-BENZODIOXOLYLBUTANAMINE (MBDB) AND STEREOISOMERS THEREOF” (Terran Biosciences Inc., priority 2021, published 2025)
